From patent publication US8349791B2, “Polypeptides that bind membrane proteins” (The Trustees of the University of Pennsylvania, priority 2006, dated 2013) come the findings set out here.

Peptide text beside a SMILES is read from it.

For the experiment, the target named is T1, αIIb TM domain (Homo sapiens, UniProt P08514).
T1 construct: expressed in transfected cells; host or cells: E. coli MM39, pDNToxR-Duet
As to the kind of experiment: DN-TOXCAT heterodimerization. Format: cell-based. The following applies: coexpressed in bacterial membranes. On the procedure:
Both the affinity and specificity of the membrane protein-binding peptides for their targets when coexpressed in bacterial membranes were assessed with a DN-“TOXCAT” assay (FIGS. 3a-3c). In TOXCAT, a TM sequence of interest is fused to a ToxR protein (TM-ToxR) that binds to the ctx promoter as a dimer, which induces expression of chloramphenicol acetyltransferase (CAT) (W. P. Russ, D. M. Engelman, Proc. Natl. Acad. Sci. U.S.A. 96, 863 (1999); D. Langosch, B. Brosig, H. Kolmar, H. J. Fritz, J. Mol. Biol. 263, 525 (1996)). In the DN assay, the TM1-ToxR fusion protein is coexpressed with a second fusion protein (TM2-ToxR*) containing a nonfunctional mutant of the ToxR domain. TM-driven dimerization leads to a ToxR-ToxR* dimer that is unable to bind the ctx promoter or to induce CAT synthesis (FIG. 3a). The resulting decrease in CAT activity can be used to monitor the formation of a heterodimeric TM complex. […]
Mutants were generated using the QuikChange site-directed mutagenesis kit (Stratagene). […] In order to quantify the effects of mutations to anti-αIIb on the change in heterodimerization relative to wild-type anti-αIIb, a disruption index (or % disruption of heterodimerization) was calculated from the data as follows: […]

T1 sequence (P08514 with tags, fused parts or gaps limits assumed): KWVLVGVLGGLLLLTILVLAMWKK

With `CC[C@H](C)[C@H](NC(=O)[C@H](Cc1ccccc1)NC(=O)[C@H](Cc1ccccc1)NC(=O)[C@@H]1CCCN1C(=O)[C@H](CC(C)C)NC(=O)[C@H](CC(C)C)NC(=O)[C@H](CCSC)NC(=O)[C@@H](NC(=O)[C@H](Cc1ccc(O)cc1)NC(=O)[C@H](C)NC(=O)[C@H](CCCCN)NC(=O)[C@@H](N)CCCCN)C(C)C)C(=O)NCC(=O)N[C@@H](CC(C)C)C(=O)N[C@@H](CC(C)C)C(=O)N[C@@H](CC(C)C)C(=O)NCC(=O)N[C@@H](CC(C)C)C(=O)N[C@H](C(=O)N[C@@H](Cc1ccccc1)C(=O)NCC(=O)NCC(=O)N[C@@H](C)C(=O)N[C@@H](Cc1ccccc1)C(=O)N[C@@H](Cc1c[nH]c2ccccc12)C(=O)NCC(=O)N1CCC[C@H]1C(=O)N[C@@H](C)C(=O)N[C@@H](CCCNC(=N)N)C(=O)N[C@@H](Cc1c[nH]cn1)C(=O)N[C@@H](CC(C)C)C(=O)N[C@@H](CCCCN)C(=O)N[C@@H](CCCCN)C(N)=O)[C@@H](C)CC` [anti-αIIb] (H-KKAYVMLLPFFIGLLLGLIFGGAFWGPARHLKK-NH2; N-terminus assumed), the “CAT signal of anti-αIIb-ToxR with αIIb as the DN partner” value is listed as “strongly attenuated”.
